Test results: ChEMBL document CHEMBL1201862, “PubChem BioAssay data set” (2004)
The source made the active and inactive calls.

How the values were obtained:
[1] = molecular target: T1, DNA repair and recombination protein RAD54-like (Homo sapiens, UniProt Q92698); assay: RAD54 Holliday junction migration blockers – biochemical, fluorescence, cherry-picked samples, dose series, confirmation (AID 651657); assay type: functional
T1 sequence (Q92698 whole entry): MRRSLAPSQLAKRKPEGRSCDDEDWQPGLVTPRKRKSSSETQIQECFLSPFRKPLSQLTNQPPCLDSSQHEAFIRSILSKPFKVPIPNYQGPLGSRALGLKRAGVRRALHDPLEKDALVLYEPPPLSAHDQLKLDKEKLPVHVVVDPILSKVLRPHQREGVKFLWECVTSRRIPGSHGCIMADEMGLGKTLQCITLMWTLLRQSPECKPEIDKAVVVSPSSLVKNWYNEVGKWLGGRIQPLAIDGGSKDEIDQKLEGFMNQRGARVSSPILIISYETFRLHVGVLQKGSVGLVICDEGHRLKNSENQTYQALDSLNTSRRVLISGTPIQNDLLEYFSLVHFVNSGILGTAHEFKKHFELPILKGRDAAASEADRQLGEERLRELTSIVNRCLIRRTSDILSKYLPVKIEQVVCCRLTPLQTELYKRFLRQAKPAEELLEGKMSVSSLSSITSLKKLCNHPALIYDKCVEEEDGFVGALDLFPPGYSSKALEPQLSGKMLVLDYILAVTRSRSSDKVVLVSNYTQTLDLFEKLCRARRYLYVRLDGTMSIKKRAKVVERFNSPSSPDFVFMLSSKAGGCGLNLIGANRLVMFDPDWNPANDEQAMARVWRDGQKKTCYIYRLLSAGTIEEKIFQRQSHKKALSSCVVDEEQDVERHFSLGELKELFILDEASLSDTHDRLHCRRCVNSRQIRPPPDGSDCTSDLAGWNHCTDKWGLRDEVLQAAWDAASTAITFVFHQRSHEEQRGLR

[2] = molecular target: T2, Endoribonuclease toxin MazF (Escherichia coli K-12, UniProt P0AE70); assay: activation of MazEF endoribonuclease cleavage – biochemical, fluorescence, single-stranded RNA substrate, uHTS hits, dose response (AID 588481); assay type: functional
T2 sequence (P0AE70 whole entry): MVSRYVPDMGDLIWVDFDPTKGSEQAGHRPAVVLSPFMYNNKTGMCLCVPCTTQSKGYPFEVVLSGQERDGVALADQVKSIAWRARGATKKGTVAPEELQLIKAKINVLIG

[3] = molecular target: T2, Endoribonuclease toxin MazF; assay: substrate-only fluorescence increase artefacts – biochemical, single-stranded RNase substrate, counter-screen for MazEF activator project, dose response (AID 588502); assay type: functional
[4] = molecular target: T3, Zinc finger protein mex-5 (Caenorhabditis elegans, UniProt Q9XUB2); assay: potency of MEX-5 RNA-binding blockers – biochemical, C. elegans, fluorescence polarization, dose response (AID 1960)
T3 sequence (Q9XUB2 whole entry): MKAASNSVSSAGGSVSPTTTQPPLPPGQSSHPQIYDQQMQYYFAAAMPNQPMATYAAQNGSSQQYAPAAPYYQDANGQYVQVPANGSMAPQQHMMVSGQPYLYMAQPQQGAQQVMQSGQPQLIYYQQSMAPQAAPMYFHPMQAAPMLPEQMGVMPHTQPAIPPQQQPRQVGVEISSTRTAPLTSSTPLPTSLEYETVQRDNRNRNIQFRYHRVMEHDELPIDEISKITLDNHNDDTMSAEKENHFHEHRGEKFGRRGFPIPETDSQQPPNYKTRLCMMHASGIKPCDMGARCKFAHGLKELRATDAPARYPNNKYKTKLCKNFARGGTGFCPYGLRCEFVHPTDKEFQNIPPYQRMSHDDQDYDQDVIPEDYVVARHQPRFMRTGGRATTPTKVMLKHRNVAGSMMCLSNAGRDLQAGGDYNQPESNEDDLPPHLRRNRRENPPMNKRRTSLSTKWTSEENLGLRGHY

[5] = molecular target: T4, RNA-binding protein pos-1 (Caenorhabditis elegans, UniProt G5EF15); assay: disruptors of C. elegans POS-1 RNA interaction – biochemical, fluorescence polarization, dose response (AID 1964);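 also: purified POS-1 fused to maltose binding protein made in E. coli; potency of compounds blocking POS-1 binding to fluorescent RNA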
T4 sequence (G5EF15 whole entry): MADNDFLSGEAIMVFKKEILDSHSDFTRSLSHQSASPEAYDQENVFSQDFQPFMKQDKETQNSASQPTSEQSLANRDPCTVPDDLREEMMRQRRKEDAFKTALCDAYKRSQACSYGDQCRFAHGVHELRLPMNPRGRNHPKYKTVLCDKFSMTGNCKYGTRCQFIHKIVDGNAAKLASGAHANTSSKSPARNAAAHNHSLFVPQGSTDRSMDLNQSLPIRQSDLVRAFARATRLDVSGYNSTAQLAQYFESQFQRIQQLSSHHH

[6] = microbe, parasite or virus in culture; assay type: functional; settings: Mycobacterium tuberculosis
[7] = Trypanosoma cruzi growth suppression in host cells – NIH3T3 host cells, beta-gal luminescence, confirmation (AID 2044); assay type: functional, cell-based;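 also: intracellular parasites grown in NIH/3T3 mouse fibroblasts as host cells; luminescent beta-galactosidase reporter signal from transgenic T. cruzi replicating inside host cells; inhibitors lower the luminescence signal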
[8] = NIH3T3 cell viability loss – ATP luminescence, mouse fibroblasts, counter-screen, dose response (AID 2010); assay type: functional, cell-based;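 also: cells exposed to compound for about 90 hours before reading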
[9] = molecular target: T5, Replicative DNA helicase DnaB (Mycobacterium tuberculosis, UniProt P9WMR3); assay: DnaB intein splicing inhibitors, dose response, biochemical, cell-free fluorescence (AID 449749); assay type: functional
T5 sequence (P9WMR3 whole entry): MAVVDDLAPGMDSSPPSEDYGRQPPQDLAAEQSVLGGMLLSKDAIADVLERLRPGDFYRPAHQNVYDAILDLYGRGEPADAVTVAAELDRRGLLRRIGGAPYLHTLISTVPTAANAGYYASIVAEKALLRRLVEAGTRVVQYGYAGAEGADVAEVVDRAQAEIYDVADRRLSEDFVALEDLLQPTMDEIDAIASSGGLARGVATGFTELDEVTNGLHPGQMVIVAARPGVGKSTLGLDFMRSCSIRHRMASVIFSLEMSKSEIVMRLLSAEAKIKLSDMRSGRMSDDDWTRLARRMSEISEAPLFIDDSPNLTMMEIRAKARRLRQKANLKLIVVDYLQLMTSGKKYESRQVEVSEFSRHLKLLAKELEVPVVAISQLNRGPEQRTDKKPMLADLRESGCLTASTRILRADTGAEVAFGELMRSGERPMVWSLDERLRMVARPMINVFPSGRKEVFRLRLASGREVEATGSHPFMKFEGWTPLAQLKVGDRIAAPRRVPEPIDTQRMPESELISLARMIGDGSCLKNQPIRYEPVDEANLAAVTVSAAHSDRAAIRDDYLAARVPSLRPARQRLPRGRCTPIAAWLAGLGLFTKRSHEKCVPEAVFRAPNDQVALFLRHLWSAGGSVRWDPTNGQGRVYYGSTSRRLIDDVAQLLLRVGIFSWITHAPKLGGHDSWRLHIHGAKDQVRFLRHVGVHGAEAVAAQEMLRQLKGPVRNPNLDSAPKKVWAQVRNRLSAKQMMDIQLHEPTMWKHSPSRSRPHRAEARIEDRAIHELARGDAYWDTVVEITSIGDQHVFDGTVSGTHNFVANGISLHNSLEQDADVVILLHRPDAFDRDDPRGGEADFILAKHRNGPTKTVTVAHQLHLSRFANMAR

Protein RecA = molecular target: T6, Protein RecA (Mycobacterium tuberculosis, UniProt P9WHJ3); assay: Fluorescence Cell-Free Homogeneous Dose Retest to Identify Inhibitors of RecA-Intein Splicing Activity. [Related pubchem assays (depositor defined):AID2097, AID2223, AID489010, AID492950]; assay type: functional
T6 sequence (P9WHJ3 whole entry): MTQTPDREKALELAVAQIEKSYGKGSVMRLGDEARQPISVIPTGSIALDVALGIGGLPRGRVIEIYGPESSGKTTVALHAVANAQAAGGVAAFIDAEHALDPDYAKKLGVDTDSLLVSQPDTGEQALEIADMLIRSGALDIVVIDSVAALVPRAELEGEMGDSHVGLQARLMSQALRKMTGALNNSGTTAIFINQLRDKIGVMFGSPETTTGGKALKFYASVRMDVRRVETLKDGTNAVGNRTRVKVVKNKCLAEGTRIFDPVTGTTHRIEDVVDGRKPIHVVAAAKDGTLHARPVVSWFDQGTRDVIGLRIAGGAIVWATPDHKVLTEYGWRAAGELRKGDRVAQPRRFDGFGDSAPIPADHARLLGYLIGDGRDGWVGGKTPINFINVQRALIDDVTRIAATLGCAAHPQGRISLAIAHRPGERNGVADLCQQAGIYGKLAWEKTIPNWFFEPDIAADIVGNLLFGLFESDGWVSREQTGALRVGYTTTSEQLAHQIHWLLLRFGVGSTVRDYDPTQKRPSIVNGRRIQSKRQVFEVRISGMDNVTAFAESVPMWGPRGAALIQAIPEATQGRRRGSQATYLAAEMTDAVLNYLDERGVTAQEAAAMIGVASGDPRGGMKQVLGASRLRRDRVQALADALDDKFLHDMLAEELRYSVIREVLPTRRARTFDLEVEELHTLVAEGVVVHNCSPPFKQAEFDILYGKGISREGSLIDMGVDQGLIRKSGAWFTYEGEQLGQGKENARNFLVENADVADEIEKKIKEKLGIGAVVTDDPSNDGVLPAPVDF

[10] = molecular target: Peroxisome proliferator-activated receptor gamma/Nuclear receptor coactivator 2 (Homo sapiens, UniProt P37231); assay: (§1) TR-FRET dose response biochemical High Throughput Screening assay for agonists of the steroid receptor coactivator 2 (SRC-2) recruitment by the peroxisome proliferator-activated receptor gamma (PPAR gamma): non-selective agonists. [Related pubchem assays: 1297, 1032 ]; assay type: functional
Peroxisome proliferator-activated receptor gamma/Nuclear receptor coactivator 2, sequence (P37231 whole entry): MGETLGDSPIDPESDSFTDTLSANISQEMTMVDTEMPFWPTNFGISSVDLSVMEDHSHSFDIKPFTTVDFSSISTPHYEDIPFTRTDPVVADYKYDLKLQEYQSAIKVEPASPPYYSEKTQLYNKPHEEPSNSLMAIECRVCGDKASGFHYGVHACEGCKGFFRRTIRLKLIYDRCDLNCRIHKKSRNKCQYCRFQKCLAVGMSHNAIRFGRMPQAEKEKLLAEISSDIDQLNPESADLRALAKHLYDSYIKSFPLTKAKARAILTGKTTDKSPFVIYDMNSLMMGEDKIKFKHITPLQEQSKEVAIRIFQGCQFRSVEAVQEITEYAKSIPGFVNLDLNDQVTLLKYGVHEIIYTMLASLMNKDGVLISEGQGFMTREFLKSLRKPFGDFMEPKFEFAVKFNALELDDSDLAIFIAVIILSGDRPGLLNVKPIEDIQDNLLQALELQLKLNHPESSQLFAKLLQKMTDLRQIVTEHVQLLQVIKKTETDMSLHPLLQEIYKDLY
Peroxisome proliferator-activated receptor gamma/Nuclear receptor coactivator 2, sequence (Q15596 whole entry, further chain): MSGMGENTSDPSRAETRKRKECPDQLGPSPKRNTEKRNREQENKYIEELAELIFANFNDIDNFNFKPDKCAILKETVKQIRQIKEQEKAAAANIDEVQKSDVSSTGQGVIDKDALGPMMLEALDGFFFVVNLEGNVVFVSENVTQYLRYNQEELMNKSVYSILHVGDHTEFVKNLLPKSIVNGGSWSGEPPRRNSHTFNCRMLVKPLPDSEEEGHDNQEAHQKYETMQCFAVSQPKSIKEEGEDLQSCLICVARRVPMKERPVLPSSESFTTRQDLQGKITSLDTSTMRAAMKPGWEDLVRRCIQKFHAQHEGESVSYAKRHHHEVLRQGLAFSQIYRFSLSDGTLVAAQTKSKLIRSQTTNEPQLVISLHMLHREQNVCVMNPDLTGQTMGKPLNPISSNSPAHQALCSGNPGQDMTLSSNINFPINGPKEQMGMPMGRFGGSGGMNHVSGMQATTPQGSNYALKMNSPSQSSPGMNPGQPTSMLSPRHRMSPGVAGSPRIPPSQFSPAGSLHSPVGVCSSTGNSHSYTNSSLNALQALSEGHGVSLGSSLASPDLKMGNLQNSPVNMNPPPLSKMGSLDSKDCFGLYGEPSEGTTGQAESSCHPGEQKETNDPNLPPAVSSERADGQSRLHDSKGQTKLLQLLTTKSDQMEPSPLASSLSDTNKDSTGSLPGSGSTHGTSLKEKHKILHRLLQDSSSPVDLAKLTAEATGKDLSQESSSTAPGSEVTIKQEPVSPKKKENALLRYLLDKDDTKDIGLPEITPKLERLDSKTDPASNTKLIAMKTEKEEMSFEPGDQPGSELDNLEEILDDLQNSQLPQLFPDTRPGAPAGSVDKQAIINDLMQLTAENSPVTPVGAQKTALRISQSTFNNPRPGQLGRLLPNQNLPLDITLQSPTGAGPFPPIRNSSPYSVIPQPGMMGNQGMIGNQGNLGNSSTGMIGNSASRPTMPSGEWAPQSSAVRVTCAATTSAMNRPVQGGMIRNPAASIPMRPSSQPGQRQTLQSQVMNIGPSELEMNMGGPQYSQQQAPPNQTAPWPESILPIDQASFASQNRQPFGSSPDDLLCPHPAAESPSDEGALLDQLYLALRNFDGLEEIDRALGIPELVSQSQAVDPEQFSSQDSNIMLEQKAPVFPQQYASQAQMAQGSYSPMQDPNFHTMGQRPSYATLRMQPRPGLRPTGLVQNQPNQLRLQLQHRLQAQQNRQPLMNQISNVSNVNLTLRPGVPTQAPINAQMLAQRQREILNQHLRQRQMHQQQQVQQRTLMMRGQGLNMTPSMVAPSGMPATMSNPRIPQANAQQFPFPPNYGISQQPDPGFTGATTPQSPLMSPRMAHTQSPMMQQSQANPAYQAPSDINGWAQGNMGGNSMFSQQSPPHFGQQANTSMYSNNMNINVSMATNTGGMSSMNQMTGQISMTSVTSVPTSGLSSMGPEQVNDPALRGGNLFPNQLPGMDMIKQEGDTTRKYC

[11] = molecular target: Peroxisome proliferator-activated receptor gamma/Nuclear receptor coactivator 1 (Homo sapiens, UniProt P37231); assay: as §1, with “1 (SRC-1)” for “2 (SRC-2)”, “assays (depositor defined):AID1300, AID1808, AID504735, AID631]” for “assays: 1297, 1032 ]”; assay type: protein assay
[12] = molecular target: Peroxisome proliferator-activated receptor gamma/Nuclear receptor coactivator 3 (Homo sapiens, UniProt P37231); assay: as §1, with “3 (SRC-3)” for “2 (SRC-2)”, “1301 (Confirmation screen.), 1048 (Primary screen.)]” for “1297, 1032 ]”; assay type: functional
Peroxisome proliferator-activated receptor gamma/Nuclear receptor coactivator 3, sequence (P37231 whole entry): as the sequence (P37231 whole entry) above
Peroxisome proliferator-activated receptor gamma/Nuclear receptor coactivator 3, sequence (Q9Y6Q9 whole entry, further chain): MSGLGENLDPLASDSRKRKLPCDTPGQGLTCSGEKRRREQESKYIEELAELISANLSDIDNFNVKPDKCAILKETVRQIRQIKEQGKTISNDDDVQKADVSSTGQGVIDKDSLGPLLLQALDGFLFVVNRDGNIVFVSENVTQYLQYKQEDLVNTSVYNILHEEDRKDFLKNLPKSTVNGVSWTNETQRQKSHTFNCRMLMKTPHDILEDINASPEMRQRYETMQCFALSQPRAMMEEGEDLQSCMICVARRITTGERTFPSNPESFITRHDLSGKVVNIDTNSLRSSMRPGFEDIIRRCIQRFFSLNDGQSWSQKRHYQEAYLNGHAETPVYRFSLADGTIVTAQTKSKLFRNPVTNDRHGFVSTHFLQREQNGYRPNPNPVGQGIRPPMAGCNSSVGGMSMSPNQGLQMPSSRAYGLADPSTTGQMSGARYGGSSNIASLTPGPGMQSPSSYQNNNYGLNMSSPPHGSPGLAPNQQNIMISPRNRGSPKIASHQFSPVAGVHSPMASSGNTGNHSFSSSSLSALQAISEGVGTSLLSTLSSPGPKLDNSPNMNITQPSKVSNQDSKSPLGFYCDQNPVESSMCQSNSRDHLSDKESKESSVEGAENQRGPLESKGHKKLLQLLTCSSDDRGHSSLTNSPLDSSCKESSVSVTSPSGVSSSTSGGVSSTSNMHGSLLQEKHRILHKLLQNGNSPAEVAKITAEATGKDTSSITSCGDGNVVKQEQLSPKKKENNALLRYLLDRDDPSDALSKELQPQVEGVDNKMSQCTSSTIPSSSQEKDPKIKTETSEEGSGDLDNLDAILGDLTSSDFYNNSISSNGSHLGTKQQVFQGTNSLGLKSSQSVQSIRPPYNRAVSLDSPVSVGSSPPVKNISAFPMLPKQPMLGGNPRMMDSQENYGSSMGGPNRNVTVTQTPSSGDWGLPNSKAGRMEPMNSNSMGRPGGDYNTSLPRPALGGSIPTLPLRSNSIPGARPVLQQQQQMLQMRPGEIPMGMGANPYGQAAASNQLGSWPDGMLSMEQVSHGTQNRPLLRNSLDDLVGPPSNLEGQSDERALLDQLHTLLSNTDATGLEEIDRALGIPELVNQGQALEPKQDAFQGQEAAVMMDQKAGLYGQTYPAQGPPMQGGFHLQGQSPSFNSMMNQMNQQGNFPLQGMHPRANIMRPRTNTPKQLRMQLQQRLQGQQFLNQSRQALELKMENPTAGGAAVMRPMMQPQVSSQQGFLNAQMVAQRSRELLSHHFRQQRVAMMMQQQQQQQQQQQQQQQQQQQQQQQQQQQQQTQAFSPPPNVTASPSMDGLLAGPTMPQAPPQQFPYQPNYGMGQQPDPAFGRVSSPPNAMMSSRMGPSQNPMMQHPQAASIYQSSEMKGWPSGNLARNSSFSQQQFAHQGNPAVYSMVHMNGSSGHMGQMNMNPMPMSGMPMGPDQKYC

Vero = assay: cells; assay type: functional; settings: Chlorocebus sabaeus
[13] = intracellular Trypanosoma cruzi inhibitors in host cells – cell-based, plate reader, cherry-pick samples, set 3, dose response (AID 651818); assay type: functional;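 also: compounds incubated with infected cells for about four days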
[14] = P. falciparum Dd2 growth inhibitors, dose response, SYBR Green, cherry-picked samples (AID 1159567); assay type: functional, cell-based

CN(C)CCCNc1nc(-c2ccccc2)nc2ccccc12
AC50 [1]: 28.8 µM (active)

Cc1cccc2cc3c(N)c(C(=O)N4CCc5ccccc54)sc3nc12
EC50 [2]: > 99 µM (inactive)
EC50 [3]: 43.4 µM (inactive)

Cc1cccn2c(=O)c3cc(C#N)c(=O)n(CCCN4CCOCC4)c3nc12
AC50 [1]: 48.9 µM (active)

Cc1cc(/C=C2\C(=O)NC(=O)N(Cc3ccccc3)C2=O)c(C)n1C1CC1
EC50 [2]: > 99 µM (inactive)
EC50 [4]: > 300 µM (not active)
EC50 [5]: > 300 µM (not active)
EC50 [3]: 23.4 µM (inactive)

COc1ccc(Nc2nc(N3CCCCC3)nc3ccccc23)c(OC)c1
CC50 [6]: > 40 µM (active)
EC50 [7]: 0.578 µM (active)
EC50 [8]: > 60 µM (inconclusive)
AC50 [1]: 62.2 µM (active)
AC50 [9]: 280 µM (active)
EC50 (Protein RecA): 114 µM (active)

N#Cc1cc2c(nc1SCc1ccccc1)CCCCC2
EC50 [10]: 12.7 µM (not active)
EC50 [11]: > 8.82 µM (inactive)
EC50 [12]: > 79.4 µM (not active)

COc1cccc(NC(=O)CSc2c3c(nc4ccccc24)CCCC3)c1
EC50 [10]: 66.1 µM (not active)
EC50 [11]: > 79.4 µM (inactive)
EC50 [12]: > 79.4 µM (not active)
AC50 [9]: 35.9 µM (active)
EC50 (Protein RecA): 3.36 µM (active)

COc1ccc(CNC(=O)C(C#N)c2nc3ccccc3nc2N2CCCC2)cc1 (stereo not given)
EC50 [2]: 9.99 µM (active)
EC50 [3]: 14.5 µM (active)

COc1ccc(C(=O)CC(SCC(NC(C)=O)C(=O)O)c2ccc(Cl)cc2)cc1OC (stereo not given)
CC50 (Vero): 22.4 µM (active)

CCn1c(=O)cc(SCC(=O)Nc2ccc(OC)c(OC)c2)c2ccccc21
EC50 [10]: 53.8 µM (not active)
EC50 [11]: > 79.4 µM (inactive)
EC50 [12]: > 79.4 µM (not active)

CN1CCc2[nH]c3ccc(C(=O)NN)cc3c2C1
AC50 [1]: 100 µM (inactive)

CSC1=NP(=S)(SC)N(C)c2nc3n(c21)CCC3 (stereo not given)
EC50 [10]: > 79.4 µM (not active)
EC50 [11]: > 79.4 µM (inactive)
EC50 [12]: > 79.4 µM (not active)

CN(C)c1ccc(C=C2C=Cc3ccccc32)cc1
EC50 [2]: > 99 µM (inactive)
EC50 [3]: 20.7 µM (inactive)

COc1cc2cc(c1Cl)N(C)C(=O)CC(OC(=O)C(C)N(C)C(C)=O)C1(C)OC1C(C)C1CC(O)(NC(=O)O1)C(OC)C=CC=C(C)C2 (stereo not given)
CC50 (Vero): < 0.05 µM (active)

Cc1ccc(S(=O)(=O)Nc2ccc3c(c2)CC(=O)N([C@@H](C)CO)C[C@@H](C)[C@@H](CN(C)Cc2ccc(C(=O)Nc4ccccc4N)cc2)O3)cc1
AC50 [13]: 2.94 µM (active)

C[C@@H]1CN([C@H](C)CO)C(=O)c2cccc(NC(=O)Nc3cccc4ccccc34)c2O[C@@H]1CN(C)C(=O)Nc1ccc(F)cc1
AC50 [14]: 3.76 µM (active)
AC50 [13]: 3.81 µM (active)

Cc1ccc(S(=O)(=O)Nc2cccc3c2O[C@@H](CN(C)Cc2ccc(C(=O)Nc4ccccc4N)cc2)[C@@H](C)CN([C@H](C)CO)C3=O)cc1
AC50 [13]: 5.8 µM (active)

COc1ccc(S(=O)(=O)Nc2ccc3c(c2)CC(=O)N([C@@H](C)CO)C[C@H](C)[C@H](CN(C)Cc2ccc(Cl)c(Cl)c2)O3)cc1
AC50 [13]: 5.64 µM (active)
